Results as given in US8703787B2, “Methods of using ALK inhibitors” (IRM LLC, priority 2011, dated 2014).

Experiments:
NCI-H2228 cells = assay: In vitro cell growth and proliferation (luciferase readout); assay type: cell-based; conditions: Homo sapiens, 72 h; NCI-H2228 with EML4-ALK, luciferase-expressing, 3 days incubation
Method: NCI-H2228 cells were obtained from the American Type Culture Collection (ATCC) (Manassa, USA) and modified by viral infection to stably express luciferase. For cell growth and proliferation assays, 2250 cells in 50 μL of RPMI media (Gibco, Carlsbad, Calif.) containing 10% fetal bovine serum (FBS) (Gibco, Carlsbad, Calif.) were plated into solid bottom, white 384-well plates (Corning, Acton, Mass.) using μ-Fill instrumentation (Bio-Tek). Plates were incubated 1 hour in a 37° C. tissue culture incubator prior to the addition of compound using MiniTrak instrumentation (Perkin-Elmer). 50 nL of a 1:3 dilution plate of compounds was added to the assay plates, resulting in final concentrations of 10000, 3333, 1111, 370, 123, 41, 14, 4.6, 1.5, 0.5 and 0.17 nM. After compound addition, plates were incubated for 3 days at 37° C. in a tissue culture incubator. At day 3, plates were assayed for cell growth and proliferation by means of measuring luciferase activity in each individual well. In detail, 25 μL of BRIGHT-GLO® (Promega, Madison, Wis.) or BRITELITE™ (PerkinElmer, Waltham, Mass.) was added to each well. After 10 minutes of incubation at room temperature, plates were read using either an Analyst-GT or an Envision plate reader (Molecular Devices, Sunnyvale, Calif.). […]

NCI-H2228 tumors = assay: Subcutaneous xenograft tumor model derived from NCI-H2228 cells; assay type: in vivo, mouse
From the text: The day of implantation, NCI-H2228 cells were harvested with 0.05% Trypsin/EDTA and resuspended in a mixture of RPMI 1640 serum-free medium and matrigel (BD Biosciences #354234, La Jolla, Calif.) at a ratio of 1:1. Five million cells were subcutaneously implanted into the right hind flank of SCID beige mouse. When the tumor size reached a volume of 300-400 mm3, the tumors were harvested and were cut into smaller pieces of 1-2 mm3 in culture medium for passage implanting subcutaneously. After the tumors were consecutively passaged three times in SCID beige mice, the tumors were considered as stock tumors for study implantation. The tumor pieces were kept in a mixture of RPMI1640 serum-free medium and matrigel at a ratio of 1:1 on wet ice for implanting in SCID beige mice. Implantation in […] mice: 2-3 pieces of the tumor with matrigel mixture were subcutaneously implanted into the right flank of the mice. After implantation, the tumors were callipered 3 times per week once tumors became palpable.
SCID beige mice bearing the H2228 tumors were randomized into 5 groups (n=4 mice per group) with an average tumor volume of 85±35 mm3. The test compound was administered by oral gavage. Its exposure in the tumor bearing female SCID beige mice was evaluated on day 14. Tumor growth was calculated by % T/C as follows: % T/C=(ΔT/ΔC)×100, where ΔT>0; or % T/C=(ΔT/ΔTI)×100, where ΔT<0. Changes in tumor volume (Δ volumes) for each treated (T) and control (C) group were calculated for each day tumors were measured by subtracting the median tumor volume on the day of first treatment (staging day) from the median tumor volume on the specified observation day.

[1] = test system: crizotinib resistant NCI-H2228 tumors; assay: Anti-tumor activity in crizotinib resistant NCI-H2228 xenograft tumors; assay type: in vivo, mouse
Method: The mouse xenograft tumors derived from NCI-H2228 were treated with crizotinib continuously at 50 mg/kg for 9 days, then 75 mg/kg for 9 days and then 100 mg/kg for 33 days. Alternatively, after xenograft tumors derived from NCI-H2228 were treated with crizotinib for 14 days at 100 mg/kg, the treatment with crizotinib was stopped for a few days until tumors re-grew. Once tumors re-grew, animals were treated with crizotinib at 100 mg/kg until tumors became resistant to crizotinib treatment. Tumors from individual animal were harvested when they became resistant to crizotinib. A few such resistant tumors were randomly selected for further studies as described below. Each resistant tumor were cut into small pieces at harvest and implanted into 5 animals; when tumor size was big enough in the 5 animals, the tumors were harvested and then implanted into 25 animals for compound testing. A piece of harvested tumors was also used for RNA extraction and subsequently sequencing of EML4-ALK transcript.

[2] = 4-wk GLP toxicology studies / exposure comparison; assay type: in vivo; conditions: based on 4-wk GLP toxicology studies, predicted

Row | Structure (SMILES) | IC50 (NCI-H2228 cells) [nM] | animal body weight loss (NCI-H2228 tumors; dosed orally at 25 mg/kg once a day for 2 weeks) | anti-tumor activity (tumor regression) (NCI-H2228 tumors; dosed orally at 25 mg/kg once a day for 2 weeks, FIG. 1) | tolerability (NCI-H2228 tumors; mouse, in vivo, po, 25 mg/kg) | anti-tumor growth activity in crizotinib resistant NCI-H2228 ([1]; FIG. 2) | activity compared with crizotinib at 100 mg/kg ([1]; other crizotinib resistant NCI-H2228 tumors, FIG. 3) | exposure associated with 50 mg/kg in mouse relative to exposure at the MTD in humans [2]
1 | CC(C)Oc1cc2c(cc1Nc1ncc(Cl)c(Nc3ccccc3S(=O)(=O)C(C)C)n1)C(=O)N(C1CCN(C)CC1)C2 [Compound 6, 6-{5-Chloro-4-[2-(propane-2-sulfonyl)-phenylamino]-pyrimidin-2-ylamino}-5-isopropoxy-2-(1-methyl-piperidin-4-yl)-2,3-dihydro-isoindol-1-one] | 16 |  |  |  |  |  | 
2 | Cc1cc(Nc2ncc(Cl)c(Nc3ccccc3S(=O)(=O)C(C)C)n2)c(OC(C)C)cc1C1CCNCC1 [Compound 1, 5-chloro-N2-(2-isopropoxy-5-methyl-4-(piperidin-4-yl)phenyl)-N4-[2-(propane-2-sulfonyl)-phenyl]-pyrimidine-2,4-diamine] | 11 | not observed | complete tumor regression | well tolerated | significant anti-tumor growth activity | better activity than crizotinib | below the exposure at the MTD in humans
